# Measured values published in ChEMBL document CHEMBL1201862, “PubChem BioAssay data set” (2004).
#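 Growth conditions: 96-well plates. Treatment: test compound, 48 hours, 5 concentrations. Analysis: linear interpolation between bracketing concentrations; unreached endpoints set to highest concentration. GI50 = concentration required for 50% inhibition of growth.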 Active and inactive are the calls of the source. Rule as the data show it: active = GI50 up to about 1.1 µM and inactive = higher.
# What was measured:
# Experiment in all cases: NCI anticancer screen, dose series, 48 h
# NCI-H522 = system: NCI-H522
# COLO 205 = system: COLO 205
# A498 = system: A498
# OVCAR-4 = system: OVCAR-4
# SN12C = system: SN12C
# CCRF-CEM = system: CCRF-CEM
# Hs-578T = system: Hs-578T
# BT-549 = system: BT-549
# SNB-19 = system: SNB-19
# A549 = system: A549
# EKVX = system: EKVX
# CAKI-1 = system: CAKI-1
# HT-29 = system: HT-29
# NCI/ADR-RES = system: NCI/ADR-RES
# UACC-257 = system: UACC-257
# SK-MEL-28 = system: SK-MEL-28
# T47D = system: T47D
# 786-0 = system: 786-0
# RXF 393 = system: RXF 393
# RPMI-8226 = system: RPMI-8226
# K562 = system: K562
# MDA-MB-435 = system: MDA-MB-435
# ACHN = system: ACHN
# LOX IMVI = system: LOX IMVI
# MDA-MB-231 = system: MDA-MB-231
# HCT-15 = system: HCT-15
# SR = system: SR
# UO-31 = system: UO-31
# NCI-H226 = system: NCI-H226
# MDA-N = system: MDA-N
# MOLT-4 = system: MOLT-4
# SW-620 = system: SW-620
# KM12 = system: KM12
# NCI-H23 = system: NCI-H23
# MCF7 = system: MCF7
# U-251 = system: U-251
# SF-539 = system: SF-539
# UACC-62 = system: UACC-62
# DU-145 = system: DU-145
# HOP-92 = system: HOP-92
# SK-OV-3 = system: SK-OV-3
# M14 = system: M14
# HL-60 = system: HL-60
# IGROV-1 = system: IGROV-1
# SK-MEL-5 = system: SK-MEL-5
# OVCAR-5 = system: OVCAR-5
# NCI-H460 = system: NCI-H460
# SNB-75 = system: SNB-75
# SF-295 = system: SF-295
# Malme-3M = system: Malme-3M
# SF-268 = system: SF-268
# HCC 2998 = system: HCC 2998
# PC-3 = system: PC-3
# HCT-116 = system: HCT-116
# SK-MEL-2 = system: SK-MEL-2
# OVCAR-3 = system: OVCAR-3
# OVCAR-8 = system: OVCAR-8
# TK-10 = system: TK-10
# HOP-62 = system: HOP-62
structure (smiles),measurement,setting,value
Cc1ccc(OCC2OC(n3cnc4c(Cl)nc(Nc5cc(Cl)cc(Cl)c5)nc43)CC2Oc2ccc(C)cc2)cc1 (configuration not stated),GI50,NCI-H522,> 100 µM (inactive)
same,GI50,COLO 205,> 100 µM (inactive)
same,GI50,A498,> 100 µM (inactive)
same,GI50,OVCAR-4,10.4 µM (inactive)
same,GI50,SN12C,> 100 µM (inactive)
same,GI50,CCRF-CEM,> 100 µM (inactive)
same,GI50,Hs-578T,> 100 µM (inactive)
same,GI50,BT-549,> 100 µM (inactive)
same,GI50,SNB-19,> 100 µM (inactive)
same,GI50,A549,> 100 µM (inactive)
same,GI50,EKVX,> 100 µM (inactive)
same,GI50,CAKI-1,> 100 µM (inactive)
same,GI50,HT-29,> 100 µM (inactive)
same,GI50,NCI/ADR-RES,> 100 µM (inactive)
same,GI50,UACC-257,> 100 µM (inactive)
same,GI50,SK-MEL-28,> 100 µM (inactive)
same,GI50,T47D,48.9 µM (inactive)
same,GI50,786-0,> 100 µM (inactive)
same,GI50,RXF 393,> 100 µM (inactive)
same,GI50,RPMI-8226,> 100 µM (inactive)
same,GI50,K562,> 100 µM (inactive)
same,GI50,MDA-MB-435,> 100 µM (inactive)
same,GI50,ACHN,> 100 µM (inactive)
same,GI50,LOX IMVI,> 100 µM (inactive)
same,GI50,MDA-MB-231,> 100 µM (inactive)
same,GI50,HCT-15,> 100 µM
same,GI50,SR,> 100 µM (inactive)
same,GI50,UO-31,> 100 µM (inactive)
same,GI50,NCI-H226,> 100 µM (inactive)
same,GI50,MDA-N,> 100 µM (inactive)
same,GI50,MOLT-4,> 100 µM (inactive)
same,GI50,SW-620,> 100 µM (inactive)
same,GI50,KM12,> 100 µM (inactive)
same,GI50,NCI-H23,> 100 µM (inactive)
same,GI50,MCF7,> 100 µM (inactive)
same,GI50,U-251,> 100 µM (inactive)
same,GI50,SF-539,> 100 µM (inactive)
same,GI50,UACC-62,> 100 µM (inactive)
same,GI50,DU-145,> 100 µM (inactive)
same,GI50,HOP-92,> 100 µM (inactive)
same,GI50,SK-OV-3,> 100 µM (inactive)
same,GI50,M14,> 100 µM (inactive)
same,GI50,HL-60,> 100 µM (inactive)
same,GI50,IGROV-1,> 100 µM (inactive)
same,GI50,SK-MEL-5,> 100 µM (inactive)
same,GI50,OVCAR-5,> 100 µM (inactive)
same,GI50,NCI-H460,> 100 µM (inactive)
same,GI50,SNB-75,17.4 µM (inactive)
same,GI50,SF-295,> 100 µM (inactive)
same,GI50,Malme-3M,> 100 µM (inactive)
same,GI50,SF-268,> 100 µM (inactive)
same,GI50,HCC 2998,> 100 µM (inactive)
same,GI50,PC-3,> 100 µM (inactive)
same,GI50,HCT-116,> 100 µM (inactive)
same,GI50,SK-MEL-2,> 100 µM (inactive)
same,GI50,OVCAR-3,> 100 µM (inactive)
same,GI50,OVCAR-8,> 100 µM (inactive)
C/C=C(/C)C(=O)O[C@H](C[C@@H](C)[C@H]1CC(c2ccoc2)OC1=O)[C@@]1(C)C(=O)CCC2O[C@]21C (some centres not stated),GI50,NCI-H522,> 100 µM (inactive)
same,GI50,COLO 205,> 100 µM (inactive)
same,GI50,A498,> 100 µM (inactive)
same,GI50,OVCAR-4,> 100 µM (inactive)
same,GI50,CCRF-CEM,> 100 µM (inactive)
same,GI50,Hs-578T,> 100 µM (inactive)
same,GI50,BT-549,> 100 µM (inactive)
same,GI50,SNB-19,> 100 µM (inactive)
same,GI50,A549,> 100 µM (inactive)
same,GI50,EKVX,> 100 µM (inactive)
same,GI50,CAKI-1,> 100 µM (inactive)
same,GI50,HT-29,> 100 µM (inactive)
same,GI50,NCI/ADR-RES,> 100 µM (inactive)
same,GI50,UACC-257,> 100 µM (inactive)
same,GI50,SK-MEL-28,> 100 µM (inactive)
same,GI50,T47D,> 100 µM (inactive)
same,GI50,786-0,> 100 µM (inactive)
same,GI50,RXF 393,> 100 µM (inactive)
same,GI50,RPMI-8226,> 100 µM (inactive)
same,GI50,K562,> 100 µM (inactive)
same,GI50,MDA-MB-435,> 100 µM (inactive)
same,GI50,ACHN,> 100 µM (inactive)
same,GI50,LOX IMVI,> 100 µM (inactive)
same,GI50,MDA-MB-231,> 100 µM (inactive)
same,GI50,HCT-15,> 100 µM
same,GI50,SR,> 100 µM (inactive)
same,GI50,UO-31,> 100 µM (inactive)
same,GI50,NCI-H226,> 100 µM (inactive)
same,GI50,MDA-N,> 100 µM (inactive)
same,GI50,MOLT-4,> 100 µM (inactive)
same,GI50,SW-620,> 100 µM (inactive)
same,GI50,KM12,> 100 µM (inactive)
same,GI50,NCI-H23,> 100 µM (inactive)
same,GI50,MCF7,> 100 µM (inactive)
same,GI50,U-251,> 100 µM (inactive)
same,GI50,SF-539,> 100 µM (inactive)
same,GI50,UACC-62,> 100 µM (inactive)
same,GI50,DU-145,> 100 µM (inactive)
same,GI50,TK-10,> 100 µM (inactive)
same,GI50,SK-OV-3,> 100 µM (inactive)
same,GI50,M14,> 100 µM (inactive)
same,GI50,HL-60,> 100 µM (inactive)
same,GI50,IGROV-1,> 100 µM (inactive)
same,GI50,SK-MEL-5,> 100 µM (inactive)
same,GI50,OVCAR-5,> 100 µM (inactive)
same,GI50,NCI-H460,> 100 µM (inactive)
same,GI50,SNB-75,> 100 µM (inactive)
same,GI50,SF-295,> 100 µM (inactive)
same,GI50,Malme-3M,> 100 µM (inactive)
same,GI50,HCC 2998,> 100 µM (inactive)
same,GI50,PC-3,> 100 µM (inactive)
same,GI50,HCT-116,> 100 µM (inactive)
same,GI50,SK-MEL-2,> 100 µM (inactive)
same,GI50,OVCAR-3,> 100 µM (inactive)
same,GI50,OVCAR-8,> 100 µM (inactive)
Oc1cc(O)c2c(c1)O[C@H](c1cc(O)c(O)c(O)c1)[C@@H](O)C2 [GALLOCATECHIN],GI50,NCI-H522,17.5 µM (inactive)
same,GI50,COLO 205,19.3 µM (inactive)
same,GI50,HOP-62,17.5 µM (inactive)
same,GI50,A498,> 100 µM (inactive)
same,GI50,OVCAR-4,22.4 µM (inactive)
same,GI50,SN12C,18.3 µM (inactive)
same,GI50,CCRF-CEM,19.5 µM (inactive)
same,GI50,Hs-578T,46.6 µM (inactive)
same,GI50,BT-549,23.6 µM (inactive)
same,GI50,SNB-19,> 100 µM (inactive)
same,GI50,A549,40.5 µM (inactive)
same,GI50,EKVX,24.8 µM (inactive)
same,GI50,CAKI-1,43.7 µM (inactive)
same,GI50,NCI/ADR-RES,36.2 µM (inactive)
same,GI50,UACC-257,> 100 µM (inactive)
same,GI50,SK-MEL-28,43.3 µM (inactive)
same,GI50,T47D,28.9 µM (inactive)
same,GI50,786-0,18 µM (inactive)
same,GI50,RXF 393,17 µM (inactive)
same,GI50,RPMI-8226,20.7 µM (inactive)
same,GI50,K562,18 µM (inactive)
same,GI50,MDA-MB-435,18.5 µM (inactive)
same,GI50,ACHN,21.1 µM (inactive)
same,GI50,LOX IMVI,20.5 µM (inactive)
same,GI50,MDA-MB-231,18.7 µM (inactive)
same,GI50,HCT-15,40 µM
same,GI50,SR,19.6 µM (inactive)
same,GI50,UO-31,18.2 µM (inactive)
same,GI50,NCI-H226,28.8 µM (inactive)
same,GI50,MDA-N,21.1 µM (inactive)
same,GI50,MOLT-4,> 10 µM (inactive)
same,GI50,SW-620,17.3 µM (inactive)
same,GI50,NCI-H23,23.5 µM (inactive)
same,GI50,MCF7,18.8 µM (inactive)
same,GI50,U-251,19.7 µM (inactive)
same,GI50,SF-539,18 µM (inactive)
same,GI50,DU-145,> 100 µM (inactive)
same,GI50,HOP-92,> 10 µM (inactive)
same,GI50,SK-OV-3,28.1 µM (inactive)
same,GI50,M14,25.1 µM (inactive)
same,GI50,HL-60,22.2 µM (inactive)
same,GI50,IGROV-1,18.8 µM (inactive)
same,GI50,SK-MEL-5,19.1 µM (inactive)
same,GI50,OVCAR-5,18.8 µM (inactive)
same,GI50,NCI-H460,19.2 µM (inactive)
same,GI50,SNB-75,17.9 µM (inactive)
same,GI50,SF-295,24.4 µM (inactive)
same,GI50,Malme-3M,> 100 µM (inactive)
same,GI50,SF-268,23.6 µM (inactive)
same,GI50,HCC 2998,> 10 µM (inactive)
same,GI50,PC-3,30.7 µM (inactive)
same,GI50,HCT-116,17.9 µM (inactive)
same,GI50,SK-MEL-2,24.6 µM (inactive)
same,GI50,OVCAR-3,21.8 µM (inactive)
same,GI50,OVCAR-8,16.2 µM (inactive)
